According to PubChem BioAssay (NCI):
Values joined by “and” are separate entries in the source; they are usually repeats but may differ in a detail not shown here. Identical values can stand only once.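 Five compound concentrations were applied to cells in 96-well plates for 48 hours; endpoints were derived by simple linear interpolation of the resulting dose-response curve. Here, GI50 denotes the concentration required for 50% inhibition of growth. TGI: total growth inhibition.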

Columns and labels:
Assay in all cases: inhibition of tumour cell growth, NCI panel, 48 h
KM12 colon = test system: KM12 colon
CAKI-1 renal = test system: CAKI-1 renal
SW-620 colon = test system: SW-620 colon
MCF7 breast = test system: MCF7 breast
OVCAR-8 ovarian = test system: OVCAR-8 ovarian
HCT-15 colon = test system: HCT-15 colon
IGROV1 ovarian = test system: IGROV1 ovarian
786-0 renal = test system: 786-0 renal
MOLT-4 leukemia = test system: MOLT-4 leukemia
SN12C renal = test system: SN12C renal

Structure (SMILES) | GI50 (KM12 colon) | TGI (KM12 colon) | GI50 (CAKI-1 renal) | TGI (CAKI-1 renal) | GI50 (SW-620 colon) | TGI (SW-620 colon) | GI50 (MCF7 breast) | TGI (MCF7 breast) | GI50 (OVCAR-8 ovarian) | TGI (OVCAR-8 ovarian) | GI50 (HCT-15 colon) | TGI (HCT-15 colon) | GI50 (IGROV1 ovarian) | TGI (IGROV1 ovarian) | GI50 (786-0 renal) | TGI (786-0 renal) | GI50 (MOLT-4 leukemia) | TGI (MOLT-4 leukemia) | GI50 (SN12C renal) | TGI (SN12C renal)
O=C(O)c1cccc(COc2ccc([N+](=O)[O-])cc2Cl)c1 | > 100 µM | > 100 µM | > 100 µM | > 100 µM | > 100 µM | > 100 µM | > 100000 nM | > 100 µM | 86.4 µM | > 100 µM | > 100000 nM | > 100 µM | 74600 nM | > 100 µM | > 100 µM | > 100 µM | – | – | – | –
CC(C)[C@H](O)C(=O)N[C@@H](C)C(=O)N[C@@H]1C(=O)N(C)CCc2ccccc21 | > 100 µM | > 100 µM | > 100 µM | > 100 µM | > 100 µM | > 100 µM | > 100000 nM | > 100 µM | > 100 µM | > 100 µM | > 100000 nM | > 100 µM | > 100000 nM | > 100 µM | > 100 µM | > 100 µM | > 100000 nM | > 100 µM | > 100000 nM | > 100 µM
N[C@H](CCC(=O)N[C@@H](Cc1c[nH]c2ccccc12)C(=O)O)C(=O)O | > 100 µM | > 100 µM | > 100 µM | > 100 µM | > 100 µM | > 100 µM | > 100000 nM | > 100 µM | > 100 µM | > 100 µM | > 100000 nM | > 100 µM | > 100000 nM | > 100 µM | > 100 µM | > 100 µM | > 100000 nM | > 100 µM | > 100000 nM | > 100 µM
Nc1ccccc1O.O.O=C(O)C1[O][Sb][O]C1C(=O)O (stereo not drawn) | > 66.2 µM | > 100 µM | 3.78 µM | 12.3 µM | 4.48 µM | 31.2 µM | 12600 nM | 37.7 µM | 14.9 µM | 32.9 µM | 19900 nM | 57.1 µM | 17600 nM | 33.2 µM | 10.5 µM | 26 µM | 10800 nM | > 100 µM | 7700 nM | 21.3 µM
COc1cc2c(cc1O)CCN[C@]21CS[C@@H]2c3c(OC(C)=O)c(C)c4c(c3[C@H](COC1=O)N1[C@@H]2[C@H]2c3c(cc(C)c(OC)c3O)C[C@@H]([C@@H]1O)N2C)OCO4 | – | – | – | 1.36 µM | – | 0.13 µM | – | 0.979 µM | – | 4.83 µM | 3.79 nM | 0.361 µM | 2.57 nM | 1.96 µM | – | 0.948 µM | – | 8.76 µM | – | 3.9 µM
CN(C)CCNCCN | – | > 100 µM | – | > 100 µM | – | > 100 µM | – | > 100 µM | – | > 100 µM | – | > 100 µM | – | > 100 µM | – | > 100 µM | – | > 100 µM | – | > 100 µM
ClC(Cl)=C1C(=C(Cl)Cl)C(Cl)(Cl)C1(Cl)Cl | – | 18.4 µM | – | 8.14 µM | – | 3.75 µM | – | 19.2 µM | – | 18.7 µM | – | 3.56 µM | – | 18.9 µM | – | 2.81 µM | 278 nM | 0.715 µM and 2 µM | 774 nM | 2.13 µM
COc1ccc(C(CC(=O)c2ccc3c(c2)OCO3)c2c(O)c3ccccc3oc2=O)cc1OC (stereo not drawn) | – | > 100 µM | – | > 100 µM | – | > 100 µM | – | > 100 µM | – | > 100 µM | – | > 100 µM | – | > 100 µM | – | > 100 µM | – | > 100 µM | – | > 100 µM
COC(=O)c1cc2c(o1)-c1nccc3c1c(nc1ccccc13)C2=O | 3.77 µM | 16.7 µM | 9.48 µM | 32.3 µM | 3.78 µM | 17.5 µM | 2070 nM | 15.6 µM | 2.1 µM | 6.38 µM | 1570 nM | 11.1 µM | 1400 nM | 4.42 µM | 2.93 µM | 14 µM | 2640 nM | 7.28 µM | 4040 nM | 18.1 µM
COC(=O)C1C(O)C(C(=O)OC)C(C)N(C)C1C (stereo not drawn) | – | > 100 µM | – | > 100 µM | – | > 100 µM | – | > 100 µM | – | > 100 µM | – | > 100 µM | – | > 100 µM | – | > 100 µM | – | > 100 µM | – | > 100 µM
O=C(Nc1cc(Nc2ncccc2-c2ncnc3nc[nH]c23)ccc1F)c1cc(C(F)(F)F)cc(C(F)(F)F)c1 | 1.53 µM | 4.03 µM | – | – | 1.54 µM | > 10 µM | 2650 nM | > 10 µM | 3.67 µM | > 10 µM | 2120 nM | 5.67 µM | 1630 nM | 7.2 µM | 3.55 µM | 9.52 µM | 2320 nM | 6.67 µM | 2730 nM | > 10 µM
CCNC(=O)/C(=C/c1ccc(OC)cc1)c1cc(OC)c(OC)c(OC)c1 | – | > 100 µM | – | > 100 µM | – | > 100 µM | – | > 100 µM | – | > 100 µM | – | > 100 µM | – | > 100 µM | – | > 100 µM | – | > 100 µM | – | > 100 µM
COC(=O)C1=COC(C)C2CN3CCc4c([nH]c5ccccc45)C3CC12 (stereo not drawn) | 17.8 µM and > 100 µM | 42.6 µM and > 100 µM | 21.2 µM and > 100 µM | 85.6 µM and > 100 µM | 22.8 µM and > 100 µM | 75.7 µM and > 100 µM | 32100 nM and > 100000 nM | > 100 µM | 18.6 µM and > 100 µM | > 100 µM | 30000 nM and > 100000 nM | > 100 µM | 22100 nM and > 100000 nM | 80.2 µM and > 100 µM | 18.8 µM and 54.8 µM | 40.2 µM and > 100 µM | 11000 nM and 28300 nM | 32.7 µM and > 100 µM | 17900 nM and > 100000 nM | 38 µM and > 100 µM
COc1cc2c(Nc3cc(Cl)c(OC)c(Cl)c3)c(C#N)cnc2cc1OCCCN1CCN(C)CC1 | 2.19 µM | 10.1 µM | 0.606 µM | 15.1 µM | 2.18 µM | 6.03 µM | 2580 nM | 12.6 µM | 1.24 µM | 4.33 µM | 1320 nM | 12.1 µM | 189 nM | 12 µM | 1.73 µM | 4.54 µM | 1670 nM | 7.92 µM | 950 nM | 17.2 µM
O=C(Nc1cc(Cl)ccc1O)c1ccc(Nc2ccnc(C(F)(F)F)c2)cc1 | 3.19 µM | 18.8 µM | 2.02 µM | 7.77 µM | 3.73 µM | > 100 µM | 2680 nM | > 100 µM | 4.54 µM | > 100 µM | 2860 nM | > 100 µM | 2340 nM | 8.19 µM | 3.61 µM | > 100 µM | 1750 nM | 6.6 µM | 2650 nM | 32 µM
CC1(C)CN=C(NN=C(/C=C/c2ccc(C(F)(F)F)cc2)/C=C/c2ccc(C(F)(F)F)cc2)NC1 | 1.21 µM | 2.45 µM | 1.09 µM | 2.37 µM | 1.14 µM | 2.66 µM | 1400 nM | 2.92 µM | 1.67 µM | 3.2 µM | 989 nM | 2.45 µM | 1440 nM | 2.88 µM | 1.78 µM | 3.42 µM | – | – | 1460 nM | 3.33 µM
CC1CC(O)C(=O)C(O[C@@H]2C[C@@H]3CC[C@@H]4[C@H](CC[C@]5(C)C(C6=CC(=O)OC6)CC[C@]45O)[C@@]3(C=O)C[C@H]2O)O1 (stereo partly drawn) | – | 0.44 µM | – | 0.0597 µM | – | 0.158 µM | – | 0.152 µM | – | 0.163 µM | – | 0.0716 µM | – | – | – | 0.0341 µM | – | 0.0991 µM | – | –
CCc1ccc2c(c1)C(=O)c1c-2n(CCCN=[N+]=[N-])c(=O)c2cc([N+](=O)[O-])ccc12 | > 50 µM | > 50 µM | > 50 µM | > 50 µM | > 50 µM | > 50 µM | > 50000 nM | > 50 µM | > 50 µM | > 50 µM | > 50000 nM | > 50 µM | > 50000 nM | > 50 µM | > 50 µM | > 50 µM | – | – | > 50000 nM | > 50 µM
N#CCCN1C/C(=C/c2ccc(Br)cc2)C(=O)/C(=C/c2ccc(Br)cc2)C1 | – | – | 2.78 µM | > 100 µM | – | – | 764 nM | 10.4 µM | 1.14 µM | > 100 µM | 1070 nM | 2.9 µM | 2020 nM | 5.35 µM | 1.38 µM | 2.84 µM | 2850 nM | > 100 µM | 1880 nM | 4.6 µM
COc1ccc(C(=O)c2cc(OC)c(OC)c(OC)c2)cc1OC | – | 28.9 µM | – | – | – | > 100 µM | – | > 100 µM | – | > 100 µM | – | > 100 µM | – | > 100 µM | – | > 100 µM | – | > 100 µM | – | > 100 µM
CCCc1cc(=O)n2c(C(=O)Nc3ccc(Cl)cc3C)c(C(=O)Nc3ccc(F)cc3)sc2n1 | 13.5 µM | > 150 µM | 7.77 µM | 42.3 µM | 6.45 µM | 61.4 µM | 4670 nM | 33.9 µM | 2.05 µM | 5.14 µM | 9400 nM | > 150 µM | 9310 nM | 33.6 µM | 2.36 µM | 5.96 µM | 3990 nM | 22.2 µM | – | –
CCOP(=O)(OCC)C(C(=O)OC)C(=O)C(=O)Nc1ccc(Cl)cc1Cl (stereo not drawn) | – | > 100 µM | – | > 100 µM | – | > 100 µM | – | – | – | > 100 µM | – | > 100 µM | – | > 100 µM | – | > 100 µM | – | > 100 µM | – | > 100 µM
